Laboratory results from ChEMBL document CHEMBL1144677, “Novel quinazolinone derivatives as 5-HT7 receptor ligands” (Bioorg Med Chem, 2008).
pIC50: −log10 of the molar value.

Tests used:
[1] = target: D(2) dopamine receptor (Homo sapiens, UniProt P14416)
Description: Binding affinity at dopamine D2 receptor

[2] = target: 5-hydroxytryptamine receptor 2A (Homo sapiens, UniProt P28223)
Description: Binding affinity at 5HT2A receptor

[3] = target: T1, 5-hydroxytryptamine receptor 1A (Homo sapiens, UniProt P08908)
T1 sequence (P08908 whole entry): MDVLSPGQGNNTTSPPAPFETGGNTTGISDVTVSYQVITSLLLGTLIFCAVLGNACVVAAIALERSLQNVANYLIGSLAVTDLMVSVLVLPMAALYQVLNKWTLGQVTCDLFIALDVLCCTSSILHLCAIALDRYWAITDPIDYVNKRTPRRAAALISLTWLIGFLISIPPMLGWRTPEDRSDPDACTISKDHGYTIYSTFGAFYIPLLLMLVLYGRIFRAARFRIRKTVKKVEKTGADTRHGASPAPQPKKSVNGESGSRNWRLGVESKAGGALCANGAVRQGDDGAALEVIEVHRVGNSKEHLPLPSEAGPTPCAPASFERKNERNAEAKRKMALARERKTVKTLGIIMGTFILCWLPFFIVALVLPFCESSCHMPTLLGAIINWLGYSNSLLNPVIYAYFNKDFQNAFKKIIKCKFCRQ
Description: Binding affinity at 5HT1A receptor

[4] = target: T2, 5-hydroxytryptamine receptor 2C (Homo sapiens, UniProt P28335)
T2 sequence (P28335 whole entry): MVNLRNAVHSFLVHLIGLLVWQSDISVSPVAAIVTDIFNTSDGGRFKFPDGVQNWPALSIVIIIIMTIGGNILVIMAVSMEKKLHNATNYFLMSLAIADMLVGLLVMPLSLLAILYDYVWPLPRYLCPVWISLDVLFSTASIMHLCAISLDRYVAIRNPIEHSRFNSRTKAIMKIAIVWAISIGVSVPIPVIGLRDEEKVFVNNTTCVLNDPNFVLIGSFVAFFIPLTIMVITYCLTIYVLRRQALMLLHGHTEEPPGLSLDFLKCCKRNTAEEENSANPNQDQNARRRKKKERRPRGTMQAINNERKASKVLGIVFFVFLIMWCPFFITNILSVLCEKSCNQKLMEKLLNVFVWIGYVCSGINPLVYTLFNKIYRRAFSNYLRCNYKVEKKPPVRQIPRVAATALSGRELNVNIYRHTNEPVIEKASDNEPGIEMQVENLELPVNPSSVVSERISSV
Description: Binding affinity at 5HT2C receptor

Sequence of D(2) dopamine receptor (P14416 whole entry): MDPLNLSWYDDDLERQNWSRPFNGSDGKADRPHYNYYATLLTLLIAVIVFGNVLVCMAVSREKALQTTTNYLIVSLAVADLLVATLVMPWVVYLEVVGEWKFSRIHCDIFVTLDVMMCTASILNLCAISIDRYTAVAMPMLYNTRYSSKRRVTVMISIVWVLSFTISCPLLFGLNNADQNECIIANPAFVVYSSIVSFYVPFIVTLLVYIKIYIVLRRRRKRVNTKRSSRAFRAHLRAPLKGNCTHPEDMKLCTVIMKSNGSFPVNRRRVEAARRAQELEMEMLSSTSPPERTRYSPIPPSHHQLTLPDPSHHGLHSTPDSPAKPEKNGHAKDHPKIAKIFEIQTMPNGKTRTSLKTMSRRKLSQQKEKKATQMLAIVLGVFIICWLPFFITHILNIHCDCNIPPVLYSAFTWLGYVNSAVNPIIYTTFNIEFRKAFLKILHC
Sequence of 5-hydroxytryptamine receptor 2A (P28223 whole entry): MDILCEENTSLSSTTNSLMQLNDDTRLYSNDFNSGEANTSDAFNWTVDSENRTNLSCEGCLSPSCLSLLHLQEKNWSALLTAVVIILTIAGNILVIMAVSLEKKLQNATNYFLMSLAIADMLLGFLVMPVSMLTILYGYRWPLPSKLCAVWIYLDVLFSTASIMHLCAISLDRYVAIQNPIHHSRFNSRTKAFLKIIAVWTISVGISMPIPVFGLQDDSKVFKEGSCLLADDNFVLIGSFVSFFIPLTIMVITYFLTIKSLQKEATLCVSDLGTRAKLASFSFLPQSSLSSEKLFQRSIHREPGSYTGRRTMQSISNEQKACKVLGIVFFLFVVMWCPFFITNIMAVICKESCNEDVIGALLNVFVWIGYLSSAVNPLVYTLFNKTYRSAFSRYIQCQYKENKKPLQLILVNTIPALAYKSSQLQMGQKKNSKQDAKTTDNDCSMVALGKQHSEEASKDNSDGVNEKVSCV

Row | Structure (SMILES) | pIC50 [1] | pIC50 [2] | pIC50 [3] | pIC50 [4]
1 | Cc1cccc(N2CCN(CCCC(=O)NCc3nc4ccccc4c(=O)n3-c3ccccc3)CC2)c1C | 5.16 | 5.96 | 6.30 | –
2 | COc1ccccc1N1CCN(CCCC(=O)NCc2nc3ccc(F)cc3c(=O)n2-c2ccccc2)CC1 | 5.28 | < 5.00 | 6.02 | 6.66
3 | CCOc1ccccc1N1CCN(CCCC(=O)NCc2nc3ccc(F)cc3c(=O)n2-c2ccccc2)CC1 | 6.00 | < 5.00 | 6.30 | 5.80

Other lines, results leading:

Row | pIC50 [1] | pIC50 [2] | pIC50 [3] | pIC50 [4] | Structure (SMILES)
4 | 5.18 | 6.21 | 6.85 | 5.89 | O=C(CCCN1CCN(c2cccc(C(F)(F)F)c2)CC1)NCc1nc2cc(F)ccc2c(=O)n1-c1ccccc1
5 | 5.40 | 6.38 | 6.66 | 7.10 | Cc1cccc(N2CCN(CCCC(=O)NCc3nc4ccc(F)cc4c(=O)n3-c3ccccc3)CC2)c1C
